{"source": "patent US20080292584A1", "about": "(priority 2005, published 2008)", "key": {"CYP2C9": {"target": "CYP2C9 (Homo sapiens, UniProt P11712)", "sequence (P11712 whole entry)": "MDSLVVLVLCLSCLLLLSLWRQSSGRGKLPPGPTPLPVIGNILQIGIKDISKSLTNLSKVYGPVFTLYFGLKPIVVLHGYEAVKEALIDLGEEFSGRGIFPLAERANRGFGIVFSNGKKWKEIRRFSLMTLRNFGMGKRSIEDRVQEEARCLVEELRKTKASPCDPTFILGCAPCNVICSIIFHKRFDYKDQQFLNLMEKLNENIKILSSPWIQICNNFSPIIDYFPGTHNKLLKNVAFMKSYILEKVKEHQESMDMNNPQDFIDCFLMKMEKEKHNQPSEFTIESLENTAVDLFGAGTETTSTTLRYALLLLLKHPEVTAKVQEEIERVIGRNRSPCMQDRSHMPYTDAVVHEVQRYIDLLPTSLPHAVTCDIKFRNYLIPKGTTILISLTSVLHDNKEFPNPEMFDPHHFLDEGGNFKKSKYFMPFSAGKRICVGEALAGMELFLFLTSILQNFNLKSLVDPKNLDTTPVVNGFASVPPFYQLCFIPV", "conditions": "1 mg/mL HLM, 60 min, with sulfaphenazole; for % Turnover / % inhibition of turnover / Conc.: single replicates"}, "CYP2B6": {"target": "T1, CYP2B6 (Homo sapiens, UniProt P20813)", "T1 sequence (P20813 1-491)": "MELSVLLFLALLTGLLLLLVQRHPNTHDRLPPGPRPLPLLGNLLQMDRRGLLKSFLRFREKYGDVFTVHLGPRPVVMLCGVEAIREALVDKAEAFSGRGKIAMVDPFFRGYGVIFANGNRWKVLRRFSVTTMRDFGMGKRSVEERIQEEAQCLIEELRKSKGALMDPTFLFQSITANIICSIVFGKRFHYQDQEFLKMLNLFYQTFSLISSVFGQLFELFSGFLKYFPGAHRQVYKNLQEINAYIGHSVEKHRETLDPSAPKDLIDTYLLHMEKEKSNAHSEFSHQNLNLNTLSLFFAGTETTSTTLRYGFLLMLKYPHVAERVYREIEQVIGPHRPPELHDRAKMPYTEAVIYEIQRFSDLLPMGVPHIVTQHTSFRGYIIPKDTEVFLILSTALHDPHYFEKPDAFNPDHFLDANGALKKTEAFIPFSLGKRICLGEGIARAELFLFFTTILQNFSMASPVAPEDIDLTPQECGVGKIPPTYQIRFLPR", "experiment": "Inhibition of CYP2B6 activity in pooled human liver microsomes (S-mephenytoin 1 mM to nirvanol)", "format": "in vitro ADME", "experimental": "All other incubations were for 30 minutes.\nFour replicates were performed.\nTwo replicates were performed."}, "human CYP1A2": {"target": "T2, human CYP1A2 (Homo sapiens, UniProt P05177)", "T2 sequence (P05177 2-516 limits assumed)": "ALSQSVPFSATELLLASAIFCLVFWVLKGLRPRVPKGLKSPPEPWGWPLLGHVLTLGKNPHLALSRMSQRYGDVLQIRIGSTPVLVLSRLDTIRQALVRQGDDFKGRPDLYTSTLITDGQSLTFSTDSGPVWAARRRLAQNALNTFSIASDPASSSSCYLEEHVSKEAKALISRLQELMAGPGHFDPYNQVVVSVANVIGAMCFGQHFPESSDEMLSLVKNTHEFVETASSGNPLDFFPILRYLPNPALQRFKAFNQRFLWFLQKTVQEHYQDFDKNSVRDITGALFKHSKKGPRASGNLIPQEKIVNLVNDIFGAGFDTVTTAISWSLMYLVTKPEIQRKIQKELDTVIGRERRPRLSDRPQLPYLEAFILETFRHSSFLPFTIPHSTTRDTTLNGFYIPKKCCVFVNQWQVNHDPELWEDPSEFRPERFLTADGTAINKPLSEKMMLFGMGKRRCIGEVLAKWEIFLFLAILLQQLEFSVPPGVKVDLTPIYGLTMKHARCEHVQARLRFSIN", "experiment": "Metabolism of metaxalone by expressed recombinant human CYP1A2 at 5 or 20 pmol (Example 4, LC-MS/MS)", "conditions": "for percent turnover / % Turnover Mean / [metaxalone] Mean / % Turnover % / [metaxalone]: 60 min; for % Turnover % / [metaxalone]: single replicates, listed as Metaxalone"}, "CYP2C19": {"target": "CYP2C19 (Homo sapiens, UniProt P33261)", "sequence (P33261 whole entry)": "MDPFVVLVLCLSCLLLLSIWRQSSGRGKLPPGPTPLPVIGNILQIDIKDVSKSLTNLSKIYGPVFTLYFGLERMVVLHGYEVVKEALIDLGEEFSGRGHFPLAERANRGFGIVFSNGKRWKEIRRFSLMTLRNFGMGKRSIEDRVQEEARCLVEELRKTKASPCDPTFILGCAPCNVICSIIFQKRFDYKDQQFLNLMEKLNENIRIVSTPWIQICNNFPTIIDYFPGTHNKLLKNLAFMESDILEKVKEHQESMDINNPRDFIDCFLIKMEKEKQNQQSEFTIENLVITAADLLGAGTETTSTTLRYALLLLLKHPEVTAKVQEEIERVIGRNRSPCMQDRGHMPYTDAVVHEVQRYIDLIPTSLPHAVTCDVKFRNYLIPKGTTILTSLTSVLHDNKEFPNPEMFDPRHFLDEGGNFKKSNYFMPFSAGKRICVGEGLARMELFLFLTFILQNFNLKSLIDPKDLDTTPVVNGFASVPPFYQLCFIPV", "experiment": "Metabolism of metaxalone by expressed recombinant human CYP2C19 at 5 or 20 pmol (Example 4)", "conditions": "for percent turnover / % Turnover Mean / [metaxalone] Mean / % Turnover % / [metaxalone]: 60 min; for % Turnover % / [metaxalone]: single replicates, listed as Metaxalone"}, "[1]": {"conditions": "0.75 μM metaxalone, 5 pmol CYP450"}, "[2]": {"conditions": "0.75 μM metaxalone, 20 pmol CYP450"}, "[3]": {"conditions": "0.75 μM metaxalone, 20 pmol cyp"}, "[4]": {"conditions": "7.5 μM metaxalone, 5 pmol CYP450"}, "[5]": {"conditions": "7.5 μM metaxalone, 20 pmol CYP450"}}, "note": "“And” between values parts separate entries of the source, which are not always exact repeats. Equal values may be shown once. Read-outs that look alike come from different tables or passages of the source.", "data": [{"smiles": "Cc1cc(C)cc(OCC2CNC(=O)O2)c1", "note": "(centres unmarked) [metaxalone, 5-[(3,5-dimethylphenoxy)methyl]-2-oxazolidinone]", "values": [{"measurement": "% Turnover Mean", "setting": "CYP2C9; 0.75 μM metaxalone", "result": 5.53, "unit": "%"}, {"measurement": "% inhibition of turnover Mean", "setting": "CYP2C9; 0.75 μM metaxalone", "result": 81.4, "unit": "%"}, {"measurement": "Mean Conc.", "setting": "CYP2C9; 0.75 μM metaxalone", "result": 0.729, "unit": "µM"}, {"measurement": "% Turnover", "setting": "CYP2C9; 0.75 μM metaxalone", "result": "5.4% and 5.6% (2×)"}, {"measurement": "% inhibition of turnover", "setting": "CYP2C9; 0.75 μM metaxalone", "result": "81.9% and 81.3%"}, {"measurement": "Conc.", "setting": "CYP2C9; 0.75 μM metaxalone", "result": 0.730, "unit": "µM"}, {"measurement": "% Turnover Mean", "setting": "CYP2C9; 7.5 μM metaxalone", "result": 11.6, "unit": "%"}, {"measurement": "% inhibition of turnover Mean", "setting": "CYP2C9; 7.5 μM metaxalone", "result": 52.8, "unit": "%"}, {"measurement": "Mean Conc.", "setting": "CYP2C9; 7.5 μM metaxalone", "result": 7.52, "unit": "µM"}, {"measurement": "% Turnover", "setting": "CYP2C9; 7.5 μM metaxalone", "result": "10.2% and 12.6%"}, {"measurement": "% inhibition of turnover", "setting": "CYP2C9; 7.5 μM metaxalone", "result": "51.0% and 58.5% and 48.8%"}, {"measurement": "Conc.", "setting": "CYP2C9; 7.5 μM metaxalone", "result": "7.49 µM and 7.65 µM and 7.44 µM"}, {"measurement": "inhibition of CYP activity at a statistically significant level", "setting": "CYP2B6; 0.3-100 μM metaxalone, p≦0.05", "result": "inhibited"}, {"measurement": "Inhibitor", "setting": "CYP2B6; CYP isozyme 2B6, summary of studies", "result": "+"}, {"measurement": "Percent of VC", "setting": "CYP2B6; metaxalone 0.3 μM", "result": 90.2, "unit": "%"}, {"measurement": "Specific Activity Individual", "setting": "CYP2B6; metaxalone 0.3 μM", "result": "27.9 pmol/min/mg protein and 25.6 pmol/min/mg protein and 27.5 pmol/min/mg protein"}, {"measurement": "Specific Activity Mean ± SD", "setting": "CYP2B6; metaxalone 0.3 μM", "result": "27.0 ± 1.21", "unit": "pmol/min/mg protein"}, {"measurement": "Percent of VC", "setting": "CYP2B6; metaxalone 1 μM", "result": 99.5, "unit": "%"}, {"measurement": "Specific Activity Individual", "setting": "CYP2B6; metaxalone 1 μM", "result": "27.3 pmol/min/mg protein and 29.5 pmol/min/mg protein and 32.6 pmol/min/mg protein"}, {"measurement": "Specific Activity Mean ± SD", "setting": "CYP2B6; metaxalone 1 μM", "result": "29.8 ± 2.68", "unit": "pmol/min/mg protein"}, {"measurement": "Percent of VC", "setting": "CYP2B6; metaxalone 3 μM", "result": 90.6, "unit": "%"}, {"measurement": "Specific Activity Individual", "setting": "CYP2B6; metaxalone 3 μM", "result": "26.3 pmol/min/mg protein and 26.9 pmol/min/mg protein and 28.2 pmol/min/mg protein"}, {"measurement": "Specific Activity Mean ± SD", "setting": "CYP2B6; metaxalone 3 μM", "result": "27.1 ± 1.00", "unit": "pmol/min/mg protein"}, {"measurement": "Percent of VC", "setting": "CYP2B6; metaxalone 30 μM", "result": 96.6, "unit": "%"}, {"measurement": "Specific Activity Individual", "setting": "CYP2B6; metaxalone 30 μM", "result": "28.9 pmol/min/mg protein and 28.7 pmol/min/mg protein and 29.2 pmol/min/mg protein"}, {"measurement": "Specific Activity Mean ± SD", "setting": "CYP2B6; metaxalone 30 μM", "result": "28.9 ± 0.216", "unit": "pmol/min/mg protein"}, {"measurement": "Percent of VC", "setting": "CYP2B6; metaxalone 100 μM", "result": 83.7, "unit": "%"}, {"measurement": "Specific Activity Individual", "setting": "CYP2B6; metaxalone 100 μM", "result": "24.9 pmol/min/mg protein and 24.6 pmol/min/mg protein and 25.7 pmol/min/mg protein"}, {"measurement": "Specific Activity Mean ± SD", "setting": "CYP2B6; metaxalone 100 μM", "result": "25.1 ± 0.581", "unit": "pmol/min/mg protein"}, {"measurement": "percent turnover", "setting": "human CYP1A2; [1]", "result": 9.2, "unit": "%"}, {"measurement": "% Turnover Mean", "setting": "human CYP1A2; 0.75 μM metaxalone, 5 pmol cyp", "result": 9.2, "unit": "%"}, {"measurement": "[metaxalone] Mean", "setting": "human CYP1A2; 0.75 μM metaxalone, 5 pmol cyp", "result": 0.719, "unit": "µM"}, {"measurement": "% Turnover %", "setting": "human CYP1A2; 0.75 μM metaxalone, 5 pmol cyp", "result": "17.5% and 6.2% and 3.9%"}, {"measurement": "[metaxalone]", "setting": "human CYP1A2; 0.75 μM metaxalone, 5 pmol cyp", "result": "0.653 µM and 0.742 µM and 0.761 µM"}, {"measurement": "percent turnover", "setting": "human CYP1A2; [2]", "result": 34.8, "unit": "%"}, {"measurement": "% Turnover Mean", "setting": "human CYP1A2; [3]", "result": 34.8, "unit": "%"}, {"measurement": "[metaxalone] Mean", "setting": "human CYP1A2; [3]", "result": 0.516, "unit": "µM"}, {"measurement": "% Turnover %", "setting": "human CYP1A2; [3]", "result": "31.7% and 35.5% and 37.3%"}, {"measurement": "[metaxalone]", "setting": "human CYP1A2; [3]", "result": "0.540 µM and 0.511 µM and 0.496 µM"}, {"measurement": "percent turnover", "setting": "human CYP1A2; [4]", "result": 10.0, "unit": "%"}, {"measurement": "% Turnover Mean", "setting": "human CYP1A2; 7.5 μM metaxalone, 5 pmol cyp", "result": 10.0, "unit": "%"}, {"measurement": "[metaxalone] Mean", "setting": "human CYP1A2; 7.5 μM metaxalone, 5 pmol cyp", "result": 7.60, "unit": "µM"}, {"measurement": "% Turnover %", "setting": "human CYP1A2; 7.5 μM metaxalone, 5 pmol cyp", "result": "14.3% and 5.7%"}, {"measurement": "[metaxalone]", "setting": "human CYP1A2; 7.5 μM metaxalone, 5 pmol cyp", "result": "7.24 µM and 7.97 µM"}, {"measurement": "percent turnover", "setting": "human CYP1A2; [5]", "result": 30.4, "unit": "%"}, {"measurement": "% Turnover Mean", "setting": "human CYP1A2; 7.5 μM metaxalone, 20 pmol cyp", "result": 30.4, "unit": "%"}, {"measurement": "[metaxalone] Mean", "setting": "human CYP1A2; 7.5 μM metaxalone, 20 pmol cyp", "result": 5.88, "unit": "µM"}, {"measurement": "% Turnover %", "setting": "human CYP1A2; 7.5 μM metaxalone, 20 pmol cyp", "result": "33.3% and 32.3% and 25.5%"}, {"measurement": "[metaxalone]", "setting": "human CYP1A2; 7.5 μM metaxalone, 20 pmol cyp", "result": "5.63 µM and 5.72 µM and 6.29 µM"}, {"measurement": "Substrate", "setting": "human CYP1A2; CYP isozyme 1A2, summary of studies", "result": "+"}, {"measurement": "percent turnover", "setting": "CYP2C19; [1]", "result": 6.9, "unit": "%"}, {"measurement": "% Turnover Mean", "setting": "CYP2C19; 0.75 μM metaxalone, 5 pmol cyp", "result": 6.9, "unit": "%"}, {"measurement": "[metaxalone] Mean", "setting": "CYP2C19; 0.75 μM metaxalone, 5 pmol cyp", "result": 0.662, "unit": "µM"}, {"measurement": "% Turnover %", "setting": "CYP2C19; 0.75 μM metaxalone, 5 pmol cyp", "result": "2.2% and 7.6% and 11.0%"}, {"measurement": "[metaxalone]", "setting": "CYP2C19; 0.75 μM metaxalone, 5 pmol cyp", "result": "0.696 µM and 0.658 µM and 0.634 µM"}, {"measurement": "percent turnover", "setting": "CYP2C19; [2]", "result": 12.5, "unit": "%"}, {"measurement": "% Turnover Mean", "setting": "CYP2C19; [3]", "result": 12.5, "unit": "%"}, {"measurement": "[metaxalone] Mean", "setting": "CYP2C19; [3]", "result": 0.623, "unit": "µM"}, {"measurement": "% Turnover %", "setting": "CYP2C19; [3]", "result": "7.4% and 13.3% and 16.9%"}, {"measurement": "[metaxalone]", "setting": "CYP2C19; [3]", "result": "0.659 µM and 0.618 µM and 0.591 µM"}, {"measurement": "percent turnover", "setting": "CYP2C19; [4]", "result": 6.3, "unit": "%"}, {"measurement": "% Turnover Mean", "setting": "CYP2C19; 7.5 μM metaxalone, 5 pmol cyp", "result": 6.3, "unit": "%"}, {"measurement": "[metaxalone] Mean", "setting": "CYP2C19; 7.5 μM metaxalone, 5 pmol cyp", "result": 7.23, "unit": "µM"}, {"measurement": "% Turnover %", "setting": "CYP2C19; 7.5 μM metaxalone, 5 pmol cyp", "result": "0.25% and 7.1% and 11.6%"}, {"measurement": "[metaxalone]", "setting": "CYP2C19; 7.5 μM metaxalone, 5 pmol cyp", "result": "7.69 µM and 7.17 µM and 6.82 µM"}, {"measurement": "percent turnover", "setting": "CYP2C19; [5]", "result": 18.7, "unit": "%"}, {"measurement": "% Turnover Mean", "setting": "CYP2C19; 7.5 μM metaxalone, 20 pmol cyp", "result": 18.7, "unit": "%"}, {"measurement": "[metaxalone] Mean", "setting": "CYP2C19; 7.5 μM metaxalone, 20 pmol cyp", "result": 6.27, "unit": "µM"}, {"measurement": "% Turnover %", "setting": "CYP2C19; 7.5 μM metaxalone, 20 pmol cyp", "result": "20.2% and 18.0% and 17.8%"}, {"measurement": "[metaxalone]", "setting": "CYP2C19; 7.5 μM metaxalone, 20 pmol cyp", "result": "6.16 µM and 6.32 µM and 6.34 µM"}, {"measurement": "Substrate", "setting": "CYP2C19; CYP isozyme 2C19, summary of studies", "result": "+"}]}]}
